# Target: T1, HMG-CoA reductase (Homo sapiens, UniProt P04035)
# T1 construct: purchased Sigma-Aldrich CS1090
# T1 sequence (P04035 426-888 limits assumed): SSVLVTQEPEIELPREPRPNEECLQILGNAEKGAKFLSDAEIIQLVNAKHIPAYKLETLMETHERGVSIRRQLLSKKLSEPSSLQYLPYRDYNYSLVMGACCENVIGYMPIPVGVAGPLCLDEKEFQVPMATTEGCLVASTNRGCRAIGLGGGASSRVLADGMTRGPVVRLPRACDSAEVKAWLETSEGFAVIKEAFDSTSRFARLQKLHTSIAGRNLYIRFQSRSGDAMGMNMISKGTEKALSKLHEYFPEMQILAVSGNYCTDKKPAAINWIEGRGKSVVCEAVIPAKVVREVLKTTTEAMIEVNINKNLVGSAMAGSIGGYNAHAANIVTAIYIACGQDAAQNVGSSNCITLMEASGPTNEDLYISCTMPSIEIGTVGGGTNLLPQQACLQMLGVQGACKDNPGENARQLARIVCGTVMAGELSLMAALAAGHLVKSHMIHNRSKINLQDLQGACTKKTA
# Assay: HMG-CoA reductase inhibition test (HMG-CoA Reductase Assay Kit, decrease in absorbance at 340 nm)
# Format: biochemical
# Details: positive control
# Protocol: The purpose of the test is to evaluate the hypocholesterolemic activity of the test samples by determining the inhibition of the enzyme 3-hydroxy-3-methylglutaryl-CoA reductase (HMG-CoA reductase).
# The test for the HMG-CoA reductase enzyme inhibitory capacity was performed using the special kit (HMG-CoA Reductase Assay Kit, Catalogue Number CS1090, Sigma-Aldrich) and related experimental protocol.
# The experiments were carried out in triplicate.
# 5 mL of buffer were added to 50 mg of the test sample and the solution obtained was then suitably filtered and used for the test.
# A 100 µM Pravastatin solution (0.042 mg/mL, Sigma Aldrich) was used as a positive control.
# The samples thus prepared were stirred for 10 seconds. Absorbance was then measured at 340 nm for 10 minutes while maintaining the samples at 37°C.
# The ability to inhibit enzyme activity was then expressed as percent inhibition and calculated according to the following Equation (1): %Hinibition = ((ΔAControl −ΔAsample)/(ΔAControl)) × 100% [formula] where the value of ΔA is given by the difference between the absorbance recorded at the start time and that recorded after 10 minutes for the control and for the sample respectively. […]
smiles,measurement,setting,value
CC[C@H](C)C(=O)O[C@H]1C[C@H](O)C=C2C=C[C@H](C)[C@H](CC[C@@H](O)C[C@@H](O)CC(=O)O)[C@H]21 [Pravastatin],inhibition at 10 µg/mL,Pravastatin 0.01 mg/mL (10 µg/mL),99.8%
same,inhibition at 100 µM,Pravastatin 0.042 mg/ml (100 µM),99.6 ± 1.1%
